Measured values: PubChem BioAssay AID328 (DTP/NCI, 2004)
Several values for one entry are separate records, joined by “and”; a condition that tells them apart may be missing. Identical values can stand only once. Inconclusive results and toxic doses are left out. The calls were made as follows: active = survival T/C of 150% or more; inactive = T/C below 125% in these data.

System: BDF1 mice, P388 leukemia ip, median survival T/C
Assay: NCI In Vivo Anticancer Drug Screen. Data for tumor model P388 Leukemia (intraperitoneal) in B6D2F1 (BDF1) mice
Details: endpoint: median survival time, higher = longer survival
Outline: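 Antitumour effect was judged in vivo: survival in drug-treated mice, normalised to that of vehicle-dosed controls, gives the reported T/C.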

[1] = dose: 25.0 mg/kg/injection, schedule: Q01DX009 (ip), vehicle: saline with Tween-80
[2] = dose: 50.0 mg/kg/injection, schedule: Q01DX009 (ip), vehicle: saline with Tween-80
[3] = dose: 100.0 mg/kg/injection, schedule: Q01DX009 (ip), vehicle: saline with Tween-80
[4] = dose: 200.0 mg/kg/injection, schedule: Q01DX009 (ip), vehicle: saline with Tween-80
[5] = dose: 100.0 mg/kg/injection, schedule: Q01DX001 (ip), vehicle: saline with Tween-80

Measured: T/C

CCN(CC)c1c(-c2ccccc2)nnc2c3ccccc3nn12
inactive: [1] 100 % of control | [2] 88 % of control | [3] 100 % of control

COC(=O)c1ccccc1OP(=O)(N(C)C)N(C)C
inactive: [2] 94 % of control | [3] 110 % of control | [4] 105 % of control

O=[N+]([O-])c1ccccc1S(=O)(=O)Oc1ccccc1
inactive: dose: 100.0 mg/kg/injection, schedule: Q04DX003 (ip), vehicle: Klucel (hydroxypropylcellulose) (HPC) 100 % of control | dose: 200.0 mg/kg/injection, schedule: Q04DX003 (ip), vehicle: Klucel (hydroxypropylcellulose) (HPC) 100 % of control | dose: 400.0 mg/kg/injection, schedule: Q04DX003 (ip), vehicle: Klucel (hydroxypropylcellulose) (HPC) 100 % of control

CC(=O)C1(O)Cc2c(O)c3c(c(O)c2C(O)C1)C(=O)c1c(OC(C)C)cccc1C3=O (stereo unspecified)
inactive: dose: 3.13 mg/kg/injection, schedule: Q04DX003 (ip), vehicle: other 108 % of control | dose: 3.13 mg/kg/injection, schedule: Q04DX009 (ip), vehicle: other 101 % of control | dose: 6.25 mg/kg/injection, schedule: Q04DX003 (ip), vehicle: other 105 % of control | dose: 6.25 mg/kg/injection, schedule: Q04DX009 (ip), vehicle: other 92 % of control | dose: 12.5 mg/kg/injection, schedule: Q04DX003 (ip), vehicle: other 100 % of control | dose: 12.5 mg/kg/injection, schedule: Q04DX009 (ip), vehicle: other 110 % of control | dose: 25.0 mg/kg/injection, schedule: Q04DX003 (ip), vehicle: other 105 % of control | dose: 25.0 mg/kg/injection, schedule: Q04DX009 (ip), vehicle: other 110 % of control | dose: 50.0 mg/kg/injection, schedule: Q04DX003 (ip), vehicle: other 101 % of control | dose: 50.0 mg/kg/injection, schedule: Q04DX009 (ip), vehicle: other 99 % of control

CC(=NCc1ccccc1)C(C)(O)c1ccccc1 (stereo unspecified)
inactive: dose: 100.0 mg/kg/injection, schedule: Q01DX001 (ip), vehicle: Klucel (hydroxypropylcellulose) (HPC) 100 % of control | dose: 100.0 mg/kg/injection, schedule: Q01DX001 (ip), vehicle: saline 109 % of control | dose: 100.0 mg/kg/injection, schedule: Q01DX009 (ip), vehicle: Klucel (hydroxypropylcellulose) (HPC) 110 % of control | dose: 200.0 mg/kg/injection, schedule: Q01DX001 (ip), vehicle: Klucel (hydroxypropylcellulose) (HPC) 104 % of control | dose: 200.0 mg/kg/injection, schedule: Q01DX001 (ip), vehicle: saline 100 % of control | dose: 200.0 mg/kg/injection, schedule: Q01DX009 (ip), vehicle: Klucel (hydroxypropylcellulose) (HPC) 100 % of control | dose: 400.0 mg/kg/injection, schedule: Q01DX001 (ip), vehicle: Klucel (hydroxypropylcellulose) (HPC) 100 % of control | dose: 400.0 mg/kg/injection, schedule: Q01DX001 (ip), vehicle: saline 118 % of control | dose: 400.0 mg/kg/injection, schedule: Q01DX009 (ip), vehicle: Klucel (hydroxypropylcellulose) (HPC) 105 % of control

CCC12C=CCN3CCC4(c5cc(C(CN6CCCCC6)c6cn(C)c7ccccc67)c(OC)cc5N(C)C4C(O)(C(=O)OC)C1OC(C)=O)C32 (stereo unspecified)
inactive: dose: 4.0 mg/kg/injection, schedule: Q01DX009 (ip), vehicle: saline 104 % of control | dose: 8.0 mg/kg/injection, schedule: Q01DX009 (ip), vehicle: saline 98 % of control | dose: 16.0 mg/kg/injection, schedule: Q01DX009 (ip), vehicle: saline 98 % of control | dose: 32.0 mg/kg/injection, schedule: Q01DX009 (ip), vehicle: saline 93 % of control and 116 % of control

O=[N+]([O-])/C=C\c1cc2c3c(c1)CCCN3CCC2
inactive: dose: 3.13 mg/kg/injection, schedule: Q01DX001 (ip), vehicle: saline with Tween-80 100 % of control | dose: 6.25 mg/kg/injection, schedule: Q01DX001 (ip), vehicle: saline with Tween-80 100 % of control | dose: 12.5 mg/kg/injection, schedule: Q01DX001 (ip), vehicle: saline with Tween-80 104 % of control

C[n+]1ccc(/C=C/c2ccc(Cl)c(Cl)c2)cc1
inactive: dose: 1.5 mg/kg/injection, schedule: Q01DX009 (ip), vehicle: Klucel (hydroxypropylcellulose) (HPC) 95 % of control | dose: 3.0 mg/kg/injection, schedule: Q01DX009 (ip), vehicle: Klucel (hydroxypropylcellulose) (HPC) 109 % of control | dose: 3.0 mg/kg/injection, schedule: Q04DX003 (ip), vehicle: Klucel (hydroxypropylcellulose) (HPC) 100 % of control | dose: 6.0 mg/kg/injection, schedule: Q04DX003 (ip), vehicle: Klucel (hydroxypropylcellulose) (HPC) 100 % of control

COc1cccc(CNc2ccc(C)c(Cl)c2)c1OC
inactive: dose: 12.5 mg/kg/injection, schedule: Q01DX009 (ip), vehicle: gum acacia 92 % of control | dose: 25.0 mg/kg/injection, schedule: Q01DX009 (ip), vehicle: gum acacia 107 % of control | dose: 50.0 mg/kg/injection, schedule: Q01DX009 (ip), vehicle: gum acacia 103 % of control | dose: 100.0 mg/kg/injection, schedule: Q04DX003 (ip), vehicle: gum acacia 91 % of control | dose: 200.0 mg/kg/injection, schedule: Q04DX003 (ip), vehicle: gum acacia 95 % of control | dose: 400.0 mg/kg/injection, schedule: Q04DX003 (ip), vehicle: gum acacia 95 % of control

CC1OC(O[C@H]2/C=C/C=C/C=C/C=C/C=C/C=C/C=C/[C@H](C)[C@@H](O)[C@@H](C)[C@H](C)OC(=O)C[C@H](O)C[C@H](O)CC[C@@H](O)[C@H](O)C[C@H](O)C[C@]3(O)C[C@H](O)[C@@H](C(=O)O)[C@H](C2)O3)C(O)C(N)C1O (stereo partly specified)
inactive: dose: 20.0 mg/kg/injection, schedule: Q04DX003 (ip), vehicle: clinical formulation 109 % of control | dose: 40.0 mg/kg/injection, schedule: Q04DX003 (ip), vehicle: clinical formulation 97 % of control

O=C(Nc1cc(Cl)ccc1Cl)O/N=C/c1ccncc1
inactive: dose: 12.5 mg/kg/injection, schedule: Q01DX009 (ip), vehicle: saline with Tween-80 106 % of control | [1] 90 % of control | [2] 96 % of control

O=[N+]([O-])c1ccc(N/N=C(\CCl)c2ccccc2)c([N+](=O)[O-])c1
inactive: dose: 25.0 mg/kg/injection, schedule: Q01DX001 (ip), vehicle: saline with Tween-80 109 % of control | dose: 50.0 mg/kg/injection, schedule: Q01DX001 (ip), vehicle: saline with Tween-80 104 % of control | [5] 104 % of control

OC1CCC2(CC1)SCCS2
inactive: [5] 96 % of control | dose: 200.0 mg/kg/injection, schedule: Q01DX001 (ip), vehicle: saline with Tween-80 103 % of control | dose: 400.0 mg/kg/injection, schedule: Q01DX001 (ip), vehicle: saline with Tween-80 101 % of control

COc1cccc(CC(=O)NCCc2ccc(OC)c(OC)c2)c1
inactive: dose: 100.0 mg/kg/injection, schedule: Q04DX003 (ip), vehicle: saline with Tween-80 100 % of control | dose: 200.0 mg/kg/injection, schedule: Q04DX003 (ip), vehicle: saline with Tween-80 90 % of control | dose: 400.0 mg/kg/injection, schedule: Q04DX003 (ip), vehicle: saline with Tween-80 100 % of control

CC(=N\O)/C(C)=N/O.CC(=N\O)/C(C)=N/O.[Pd]
inactive: dose: 1.57 mg/kg/injection, schedule: Q01DX009 (ip), vehicle: Klucel (hydroxypropylcellulose) (HPC) 100 % of control | dose: 3.13 mg/kg/injection, schedule: Q01DX009 (ip), vehicle: Klucel (hydroxypropylcellulose) (HPC) 100 % of control | dose: 6.25 mg/kg/injection, schedule: Q01DX009 (ip), vehicle: Klucel (hydroxypropylcellulose) (HPC) 100 % of control

OCC1CC=CCC1 (stereo unspecified)
inactive: dose: 100.0 mg/kg/injection, schedule: Q01DX009 (ip), vehicle: saline 114 % of control | dose: 200.0 mg/kg/injection, schedule: Q01DX009 (ip), vehicle: saline 109 % of control | dose: 400.0 mg/kg/injection, schedule: Q01DX009 (ip), vehicle: saline 119 % of control

O=C(c1ccccc1)C1(Br)CCC1
inactive: dose: 100.0 mg/kg/injection, schedule: Q01DX009 (ip), vehicle: saline sonified 91 % of control | dose: 200.0 mg/kg/injection, schedule: Q01DX009 (ip), vehicle: saline sonified 100 % of control | dose: 400.0 mg/kg/injection, schedule: Q01DX009 (ip), vehicle: saline sonified 95 % of control

O=C(O)C1C(C(=O)O)N2C(c3ccccc3)C(C(=O)O)C(C(=O)O)N2C1c1ccccc1 (stereo unspecified)
inactive: [2] 90 % of control | [3] 90 % of control | [4] 90 % of control

COC(=O)C1=COC2OC3CC1C2C(C)O3 (stereo unspecified)
inactive: dose: 12.5 mg/kg/injection, schedule: Q01DX009 (ip), vehicle: Klucel (hydroxypropylcellulose) (HPC) 99 % of control | dose: 25.0 mg/kg/injection, schedule: Q01DX009 (ip), vehicle: Klucel (hydroxypropylcellulose) (HPC) 98 % of control | dose: 50.0 mg/kg/injection, schedule: Q01DX009 (ip), vehicle: Klucel (hydroxypropylcellulose) (HPC) 115 % of control

OCC[P+](c1ccccc1)(c1ccccc1)c1ccccc1
inactive: dose: 25.0 mg/kg/injection, schedule: Q01DX001 (ip), vehicle: saline 108 % of control | dose: 50.0 mg/kg/injection, schedule: Q01DX001 (ip), vehicle: saline 98 % of control
